EC50 and Emax data for 15 compounds are collected here from US20240208992A1, “MACROCYCLES AS CFTR MODULATORS” (Idorsia Pharmaceuticals Ltd, priority 2021, published 2024).

In the experiment the target is human F508del-CFTR (Homo sapiens, UniProt P13569, DEL508-508). The experiment can be described thus: F508del-CFTR cell surface expression (corrector activity), DiscoveRx ß-galactosidase complementation chemiluminescence assay in recombinant U2OS cell line.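 For all read-outs here: U2OS cells co-expressing ProLink-tagged F508del-CFTR and a membrane-anchored enzyme acceptor, where more surface CFTR restores β-galactosidase activity measured by chemiluminescence.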 Conditions: U2OS cell line, 16h compound incubation; for EC50: EC50, F508del-CFTR cell surface expression, geomean values; for Emax: U2OS, in relation to the Emax of the corrector lumacaftor (=100%), arithmetic mean values.

As a reminder, the EC50 is the midpoint of the concentration-response curve. Broadly, the Emax is the size of the effect at its maximum, as opposed to the concentration needed.

Chain of human F508del-CFTR (P13569 with tags, fused parts or gaps DEL508-508): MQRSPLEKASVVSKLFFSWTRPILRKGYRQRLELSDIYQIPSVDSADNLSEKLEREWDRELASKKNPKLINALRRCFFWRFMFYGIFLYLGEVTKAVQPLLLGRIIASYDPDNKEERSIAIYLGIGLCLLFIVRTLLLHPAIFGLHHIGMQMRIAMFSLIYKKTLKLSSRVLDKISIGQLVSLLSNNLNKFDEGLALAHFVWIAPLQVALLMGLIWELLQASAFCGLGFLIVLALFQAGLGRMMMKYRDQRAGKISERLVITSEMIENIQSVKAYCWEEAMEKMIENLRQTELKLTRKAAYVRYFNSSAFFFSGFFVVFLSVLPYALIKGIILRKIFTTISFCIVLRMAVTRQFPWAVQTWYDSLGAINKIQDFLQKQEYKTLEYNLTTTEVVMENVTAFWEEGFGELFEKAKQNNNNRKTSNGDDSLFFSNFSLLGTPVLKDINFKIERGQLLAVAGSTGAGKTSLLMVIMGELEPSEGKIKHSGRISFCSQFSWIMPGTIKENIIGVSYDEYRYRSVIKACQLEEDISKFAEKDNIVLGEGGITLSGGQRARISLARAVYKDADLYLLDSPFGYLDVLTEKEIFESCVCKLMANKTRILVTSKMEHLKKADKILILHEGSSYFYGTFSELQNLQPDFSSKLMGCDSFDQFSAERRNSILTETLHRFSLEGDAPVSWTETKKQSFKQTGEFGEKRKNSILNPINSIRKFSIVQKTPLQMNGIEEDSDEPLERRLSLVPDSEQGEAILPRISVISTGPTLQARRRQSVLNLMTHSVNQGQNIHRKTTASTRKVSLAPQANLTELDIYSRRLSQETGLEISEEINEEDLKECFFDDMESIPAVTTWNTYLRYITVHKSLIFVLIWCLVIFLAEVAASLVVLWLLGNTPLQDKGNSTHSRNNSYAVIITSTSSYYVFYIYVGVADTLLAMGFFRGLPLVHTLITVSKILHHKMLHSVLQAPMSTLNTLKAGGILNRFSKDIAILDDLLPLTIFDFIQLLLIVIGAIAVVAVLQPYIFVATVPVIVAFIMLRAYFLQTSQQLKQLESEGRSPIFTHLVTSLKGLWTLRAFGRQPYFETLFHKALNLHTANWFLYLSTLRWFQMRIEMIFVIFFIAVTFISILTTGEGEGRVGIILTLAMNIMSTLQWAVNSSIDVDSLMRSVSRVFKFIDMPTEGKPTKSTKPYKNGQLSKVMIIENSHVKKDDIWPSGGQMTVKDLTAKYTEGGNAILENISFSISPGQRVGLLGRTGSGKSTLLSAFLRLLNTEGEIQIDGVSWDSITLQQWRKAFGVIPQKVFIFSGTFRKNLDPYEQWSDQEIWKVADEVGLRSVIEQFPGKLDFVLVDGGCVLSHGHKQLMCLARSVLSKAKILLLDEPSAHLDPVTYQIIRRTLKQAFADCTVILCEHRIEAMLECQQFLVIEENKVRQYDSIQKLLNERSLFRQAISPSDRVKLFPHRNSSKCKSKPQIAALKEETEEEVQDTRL

As for `[2H]C([2H])([2H])Oc1cccc(CCNC(=O)[C@@H]2CC(=O)N(C)[C@@H](CC(C)C)C(=O)N(CCC3CCCCC3)CC(=O)N[C@H](Cc3ccccc3)COc3cnc4ccccc4c3C(=O)N2)c1` [Example 316, (3S,7S,13R)-13-benzyl-9-(2-cyclohexylethyl)-7-isobutyl-N-(3-(methoxy-d3)phenethyl)-6-methyl-1,5,8,11-tetraoxo-1,2,3,4,5,6,7,8,9,10,11,12,13,14-tetradecahydro-[1]oxa[4,7,10,14]tetraazacycloheptadecino[17,16-c]quinoline-3-carboxamide], the EC50 was 55 nM and the Emax is 343%.

As to `COc1cccc(CCNC(=O)[C@@H]2CC(=O)N(C)[C@@H](CC(C)C)C(=O)N(C)CC(=O)N[C@H](Cc3ccccc3)COc3cccc(OC(F)(F)F)c3C(=O)N2)c1` [Example 317, (3R,9S,13S)-3-benzyl-9-isobutyl-N-(3-methoxyphenethyl)-7,10-dimethyl-5,8,11,15-tetraoxo-16-(trifluoromethoxy)-2,3,4,5,6,7,8,9,10,11,12,13,14,15-tetradecahydrobenzo[p][1]oxa[4,7,10,14]tetraazacycloheptadecine-13-carboxamide], the concentration for a half-maximal effect (EC50) was 661 nM and the Emax was 89%.

On to `CC(C)C[C@H]1C(=O)N(C)CC(=O)N[C@H](Cc2ccccc2)COc2cnc3ccccc3c2C(=O)N[C@H](C(=O)NCCc2ccc3c(c2)OCO3)CC(=O)N1C` [Example 318, (3S,7S,13R)-N-(2-(benzo[d][1,3]dioxol-5-yl)ethyl)-13-benzyl-7-isobutyl-6,9-dimethyl-1,5,8,11-tetraoxo-1,2,3,4,5,6,7,8,9,10,11,12,13,14-tetradecahydro-[1]oxa[4,7,10,14]tetraazacycloheptadecino[17,16-c]quinoline-3-carboxamide], for which the concentration for a half-maximal effect (EC50) worked out at 679 nM and the maximum response (Emax) was 295%.

Regarding `COc1cccc(CCNC(=O)[C@@H]2CC(=O)N(C)[C@@H](CC(C)C)C(=O)N(C)CC(=O)N[C@H](Cc3ccccc3)COc3cnc4ccccc4c3C(=O)N2)c1` [Example 319, (3S,7S,13R)-13-benzyl-7-isobutyl-N-(3-methoxyphenethyl)-6,9-dimethyl-1,5,8,11-tetraoxo-1,2,3,4,5,6,7,8,9,10,11,12,13,14-tetradecahydro-[1]oxa[4,7,10,14]tetraazacycloheptadecino[17,16-c]quinoline-3-carboxamide], the half-maximal effective concentration (EC50) was found to be 574 nM and the maximum response (Emax) is 296%.

With `[2H]C([2H])([2H])Oc1cccc(CCNC(=O)[C@@H]2CC(=O)N(C)[C@@H](CC(C)C)C(=O)N(C)CC(=O)N[C@H](Cc3ccccc3)COc3cnc4ccccc4c3C(=O)N2)c1` [Example 320, (3S,7S,13R)-13-benzyl-7-isobutyl-N-(3-(methoxy-d3)phenethyl)-6,9-dimethyl-1,5,8,11-tetraoxo-1,2,3,4,5,6,7,8,9,10,11,12,13,14-tetradecahydro-[1]oxa[4,7,10,14]tetraazacycloheptadecino[17,16-c]quinoline-3-carboxamide], the concentration giving a half-maximal response (EC50) was 363 nM and the maximum response (Emax) came out at 297%.

For the compound `CC(C)C[C@H]1C(=O)N(C)CC(=O)N[C@H](Cc2ccccc2)COc2ccc3c(c2C(=O)N[C@H](C(=O)NCCc2ccc4c(c2)OCO4)CC(=O)N1C)OCO3` [Example 321, (8R,14S,18S)-N-(2-(benzo[d][1,3]dioxol-5-yl)ethyl)-8-benzyl-14-isobutyl-12,15-dimethyl-10,13,16,20-tetraoxo-7,8,9,10,11,12,13,14,15,16,17,18,19,20-tetradecahydro-[1,3]dioxolo[4′,5′:5,6]benzo[1,2-p][1]oxa[4,7,10,14]tetraazacycloheptadecine-18-carboxamide], the EC50 amounted to 816 nM and the maximal response (Emax) was 266%.

As to `[2H]C1([2H])Oc2ccc3c(c2O1)C(=O)N[C@H](C(=O)NCCc1ccc2c(c1)OCO2)CC(=O)N(C)[C@@H](CC(C)C)C(=O)N(C)CC(=O)N[C@H](Cc1ccccc1)CO3` [Example 322, (8R,14S,18S)-N-(2-(benzo[d][1,3]dioxol-5-yl)ethyl)-8-benzyl-14-isobutyl-12,15-dimethyl-10,13,16,20-tetraoxo-7,8,9,10,11,12,13,14,15,16,17,18,19,20-tetradecahydro-[1,3]dioxolo[4′,5′:5,6]benzo[1,2-p][1]oxa[4,7,10,14]tetraazacycloheptadecine-2,2-d2-18-carboxamide], the EC50 is 504 nM and the maximal response (Emax) was 197%.

`COc1cccc(CCNC(=O)[C@@H]2CC(=O)N(C)[C@@H](CC(C)C)C(=O)N(C)CC(=O)N[C@H](Cc3ccccc3)COc3ccc4c(c3C(=O)N2)OCO4)c1` [Example 323, (8R,14S,18S)-8-benzyl-14-isobutyl-N-(3-methoxyphenethyl)-12,15-dimethyl-10,13,16,20-tetraoxo-7,8,9,10,11,12,13,14,15,16,17,18,19,20-tetradecahydro-[1,3]dioxolo[4′,5′:5,6]benzo[1,2-p][1]oxa[4,7,10,14]tetraazacycloheptadecine-18-carboxamide]: the EC50 amounted to 742 nM and the maximal response (Emax) was found to be 258%.

For the compound `[2H]C1([2H])Oc2ccc3c(c2O1)C(=O)N[C@H](C(=O)NCCc1cccc(OC)c1)CC(=O)N(C)[C@@H](CC(C)C)C(=O)N(C)CC(=O)N[C@H](Cc1ccccc1)CO3` [Example 324, (8R,14S,18S)-8-benzyl-14-isobutyl-N-(3-methoxyphenethyl)-12,15-dimethyl-10,13,16,20-tetraoxo-7,8,9,10,11,12,13,14,15,16,17,18,19,20-tetradecahydro-[1,3]dioxolo[4′,5′:5,6]benzo[1,2-p][1]oxa[4,7,10,14]tetraazacycloheptadecine-2,2-d2-18-carboxamide], the EC50 worked out at 666 nM and the maximum response (Emax) is 247%.

As for `COc1cc(CCNC(=O)[C@@H]2CC(=O)N(C)[C@@H](CC(C)C)C(=O)N3CCOC[C@@H]3C(=O)N[C@H](Cc3ccccc3)COc3ccc4ccccc4c3C(=O)N2)cc(OC)c1` [Example 325, (4aR,7R,18S,22S)-7-benzyl-N-(3,5-dimethoxyphenethyl)-22-isobutyl-21-methyl-5,16,20,23-tetraoxo-1,2,4,4a,5,6,7,8,16,17,18,19,20,21,22,23-hexadecahydronaphtho[1,2-p][1,4]oxazino[3,4-f][1]oxa[4,7,10,14]tetraazacycloheptadecine-18-carboxamide], the half-maximal effective concentration (EC50) amounted to 187 nM and the Emax amounted to 237%.

For `CC(C)C[C@H]1C(=O)N2CCOC[C@@H]2C(=O)N[C@H](Cc2ccccc2)COc2ccc3ccccc3c2C(=O)N[C@H](C(=O)NCCc2ccc3c(c2)OCO3)CC(=O)N1C` [Example 326, (4aR,7R,18S,22S)-N-(2-(benzo[d][1,3]dioxol-5-yl)ethyl)-7-benzyl-22-isobutyl-21-methyl-5,16,20,23-tetraoxo-1,2,4,4a,5,6,7,8,16,17,18,19,20,21,22,23-hexadecahydronaphtho[1,2-p][1,4]oxazino[3,4-f][1]oxa[4,7,10,14]tetraazacycloheptadecine-18-carboxamide], the EC50 came to 276 nM and the Emax stood at 273%.

In the case of `CC(C)C[C@H]1C(=O)N2CCOC[C@@H]2C(=O)N[C@H](Cc2ccccc2)COc2ccc3ccccc3c2C(=O)N[C@H](C(=O)NCCc2nc3ccccc3o2)CC(=O)N1C` [Example 327, (4aR,7R,18S,22S)-N-(2-(benzo[d]oxazol-2-yl)ethyl)-7-benzyl-22-isobutyl-21-methyl-5,16,20,23-tetraoxo-1,2,4,4a,5,6,7,8,16,17,18,19,20,21,22,23-hexadecahydronaphtho[1,2-p][1,4]oxazino[3,4-f][1]oxa[4,7,10,14]tetraazacycloheptadecine-18-carboxamide], the EC50 came out at 461 nM and the maximal effect (Emax) is 225%.

`COc1cc(CCNC(=O)[C@@H]2CC(=O)N(C)[C@@H](CC(C)C)C(=O)N3CCCC[C@@H]3C(=O)N[C@H](Cc3ccccc3)COc3ccc4ncn(C)c4c3C(=O)N2)cc(OC)c1` [Example 328, (8S,12S,18aR,21R)-21-benzyl-N-(3,5-dimethoxyphenethyl)-12-isobutyl-5,11-dimethyl-6,10,13,19-tetraoxo-6,7,8,9,10,11,12,13,16,17,18,18a,19,20,21,22-hexadecahydro-5H,15H-imidazo[4′,5′:5,6]benzo[1,2-p]pyrido[2,1-f][1]oxa[4,7,10,14]tetraazacycloheptadecine-8-carboxamide]: the half-maximal effective concentration (EC50) worked out at 987 nM and the Emax was 228%.

As for `CC(C)C[C@H]1C(=O)N2CCCC[C@@H]2C(=O)N[C@H](Cc2ccccc2)COc2ccc3ncn(C)c3c2C(=O)N[C@H](C(=O)NCCc2ccc3c(c2)OCO3)CC(=O)N1C` [Example 329, (8S,12S,18aR,21R)-N-(2-(benzo[d][1,3]dioxol-5-yl)ethyl)-21-benzyl-12-isobutyl-5,11-dimethyl-6,10,13,19-tetraoxo-6,7,8,9,10,11,12,13,16,17,18,18a,19,20,21,22-hexadecahydro-5H,15H-imidazo[4′,5′:5,6]benzo[1,2-p]pyrido[2,1-f][1]oxa[4,7,10,14]tetraazacycloheptadecine-8-carboxamide], the EC50 was 796 nM and the Emax came to 198%.

Take `CC(C)C[C@H]1C(=O)N(CCC2CC3CCC2O3)CC(=O)N[C@H](Cc2ccccc2)COc2ccc3ccccc3c2C(=O)N[C@H](C(=O)NCCc2ccc3c(c2)OCO3)CC(=O)N1C` (stereo partly drawn) [Example 330, (3S,7S,13R)-9-(2-(7-oxabicyclo[2.2.1]heptan-2-yl)ethyl)-N-(2-(benzo[d][1,3]dioxol-5-yl)ethyl)-13-benzyl-7-isobutyl-6-methyl-1,5,8,11-tetraoxo-1,2,3,4,5,6,7,8,9,10,11,12,13,14-tetradecahydronaphtho[1,2-p][1]oxa[4,7,10,14]tetraazacycloheptadecine-3-carboxamide]: the EC50 is 418 nM and the Emax is 138%.
